According to DBAASP:
Converted amounts (≈) assume the structure as drawn. Values belong to the molecule of their own block, whether it stands above or below them.

Tests used:
Test in all cases: ≥ marks a high value that may be exact or a test limit, other limits are often not marked, values filed in µg/mL are converted to µM
[1] = system: Escherichia coli BL21
[2] = system: Pseudomonas aeruginosa PAO1
[3] = system: Escherichia coli JW0013
[4] = system: Candida albicans ATCC 10231
[5] = system: Cryptococcus neoformans ATCC 32045
[6] = system: Escherichia coli ATCC 2592
[7] = system: Pseudomonas aeruginosa ATCC 10145
[8] = system: Staphylococcus aureus ATCC 33591
[9] = system: Bacillus subtilis
[10] = system: Escherichia coli
[11] = system: Klebsiella pneumoniae
[12] = system: Micrococcus luteus
[13] = system: Proteus mirabilis
[14] = system: Pseudomonas aeruginosa
[15] = system: Salmonella typhimurium
[16] = system: Shigella dysenteriae
[17] = system: Staphylococcus aureus
[18] = system: Staphylococcus epidermidis

Structure (SMILES): CC[C@H](C)[C@H](NC(=O)[C@H](C)NC(=O)[C@H](Cc1ccccc1)NC(=O)[C@H](CCCCN)NC(=O)[C@@H](N)C(C)C)C(=O)N[C@@H](CCCCN)C(=O)N[C@@H](CCCCN)C(=O)N[C@H](C(=O)NCC(=O)N[C@@H](CCCCN)C(=O)N[C@@H](CCCCN)C(=O)N[C@@H](C)C(=O)N[C@@H](C)C(=O)N[C@@H](CCCCN)C(=O)N[C@@H](CCCCN)C(=O)N[C@H](C(=O)N[C@H](C(=O)N[C@H](C(=O)N[C@@H](CCCCN)C(=O)N[C@@H](C)C(=O)O)C(C)C)[C@@H](C)CC)C(C)C)[C@@H](C)CC [VKFAIKKIGKKAAKKVIVKA]
MIC [1]: ≥ 128 µM
MIC [2]: 32 µM (≈ 69.4 µg/mL)

Structure (SMILES): C[C@H](NC(=O)[C@H](Cc1ccccc1)NC(=O)[C@H](CCCCN)NC(=O)[C@H](CCCCN)NC(=O)[C@H](C)NC(=O)[C@H](Cc1ccccc1)NC(=O)[C@H](CCCCN)NC(=O)[C@H](CCCCN)NC(=O)[C@H](C)NC(=O)[C@H](Cc1ccccc1)NC(=O)[C@H](CCCCN)NC(=O)[C@H](CCCCN)NC(=O)[C@H](C)NC(=O)[C@H](Cc1ccccc1)NC(=O)[C@H](CCCCN)NC(=O)[C@H](CCCCN)NC(=O)[C@H](C)NC(=O)[C@H](Cc1ccccc1)NC(=O)[C@H](CCCCN)NC(=O)[C@H](CCCCN)NC(=O)[C@H](C)NC(=O)[C@H](Cc1ccccc1)NC(=O)[C@@H](N)CCCCN)C(=O)N[C@@H](CCCCN)C(=O)O [KFAKKFAKKFAKKFAKKFAKKFAK]
MIC [4]: 34.9 µM (≈ 100 µg/mL)
MIC [5]: 7.9 µM (≈ 22.6 µg/mL)
MIC [6]: 3.95 µM (≈ 11.3 µg/mL)
MIC [7]: 5.58 µM (≈ 16 µg/mL)
MIC [8]: ≥ 61.7 µM

Structure (SMILES): CC(C)C[C@H](NC(=O)[C@H](C)NC(=O)CNC(=O)[C@H](CC(C)C)NC(=O)[C@@H](N)Cc1ccccc1)C(=O)N[C@@H](Cc1c[nH]c2ccccc12)C(=O)N[C@@H](CCCCN)C(=O)N[C@H](C(=O)N[C@@H](C)C(=O)N[C@@H](CO)C(=O)N[C@@H](CCCCN)C(=O)O)C(C)C [FLGALWKVASK]
MIC [9]: ≥ 164 µM
MIC [10]: 164 µM (≈ 200 µg/mL)
MIC [11]: 82 µM (≈ 100 µg/mL)
MIC [12]: ≥ 164 µM
MIC [13]: ≥ 164 µM
MIC [14]: > 164 µM
MIC [15]: ≥ 164 µM
MIC [16]: ≥ 164 µM
MIC [17]: 82 µM (≈ 100 µg/mL)
MIC [18]: ≥ 164 µM

Structure (SMILES): CC(C)C[C@H](NC(=O)[C@H](CCCCN)NC(=O)[C@H](CC(C)C)NC(=O)[C@H](CCCCN)NC(=O)[C@H](CC(C)C)NC(=O)[C@H](CCCCN)NC(=O)[C@H](CC(C)C)NC(=O)[C@H](CCCCN)NC(=O)[C@H](CC(C)C)NC(=O)[C@H](CCCCN)NC(=O)[C@H](CC(C)C)NC(=O)[C@H](CCCCN)NC(=O)[C@@H](N)CC(C)C)C(=O)N[C@@H](CCCCN)C(=O)O [LKLKLKLKLKLKLK]
MIC [4]: 207 µM (≈ 354 µg/mL)
MIC [5]: 1.66 µM (≈ 2.83 µg/mL)
MIC [6]: 30.9 µM (≈ 52.8 µg/mL)
MIC [7]: ≥ 73.2 µM
MIC [8]: ≥ 207 µM

Structure (SMILES): CC(C)C[C@H](NC(=O)[C@H](C)NC(=O)CNC(=O)[C@H](CC(C)C)NC(=O)[C@@H](N)Cc1ccccc1)C(=O)N[C@@H](Cc1ccccc1)C(=O)N[C@@H](CCCCN)C(=O)N[C@@H](CCCCN)C(=O)N[C@@H](C)C(=O)N[C@@H](CO)C(=O)N[C@@H](CCCCN)C(=O)O [FLGALFKKASK]
MIC [9]: ≥ 82.7 µM
MIC [10]: > 165 µM
MIC [11]: > 165 µM
MIC [12]: 10.3 µM (≈ 12.5 µg/mL)
MIC [13]: ≥ 165 µM
MIC [14]: > 165 µM
MIC [15]: ≥ 165 µM
MIC [16]: ≥ 165 µM
MIC [17]: 165 µM (≈ 200 µg/mL)
MIC [18]: ≥ 165 µM

Structure (SMILES): C[C@H](NC(=O)[C@H](CCCCN)NC(=O)[C@H](Cc1ccccc1)NC(=O)[C@H](C)NC(=O)[C@H](CCCCN)NC(=O)[C@H](Cc1ccccc1)NC(=O)[C@H](C)NC(=O)[C@H](CCCCN)NC(=O)[C@H](Cc1ccccc1)NC(=O)[C@H](C)NC(=O)[C@H](CCCCN)NC(=O)[C@H](Cc1ccccc1)NC(=O)[C@H](C)NC(=O)[C@H](CCCCN)NC(=O)[C@H](Cc1ccccc1)NC(=O)[C@H](C)NC(=O)[C@H](CCCCN)NC(=O)[C@H](Cc1ccccc1)NC(=O)[C@H](C)NC(=O)[C@H](CCCCN)NC(=O)[C@@H](N)Cc1ccccc1)C(=O)O [FKAFKAFKAFKAFKAFKAFKA]
MIC [4]: 145 µM (≈ 354 µg/mL)
MIC [5]: 2.32 µM (≈ 5.66 µg/mL)
MIC [6]: 9.26 µM (≈ 22.6 µg/mL)
MIC [7]: 13.1 µM (≈ 32 µg/mL)
MIC [8]: ≥ 205 µM

Structure (SMILES): CC(C)C[C@H](NC(=O)[C@H](CCCN=C(N)N)NC(=O)[C@H](CC(C)C)NC(=O)[C@H](CCCN=C(N)N)NC(=O)[C@H](CC(C)C)NC(=O)[C@H](CCCN=C(N)N)NC(=O)[C@H](CC(C)C)NC(=O)[C@H](CCCN=C(N)N)NC(=O)[C@H](CC(C)C)NC(=O)[C@H](CCCN=C(N)N)NC(=O)[C@H](CC(C)C)NC(=O)[C@H](CCCN=C(N)N)NC(=O)[C@H](CC(C)C)NC(=O)[C@H](CCCN=C(N)N)NC(=O)[C@H](CC(C)C)NC(=O)[C@H](CCCN=C(N)N)NC(=O)[C@@H](N)CC(C)C)C(=O)N[C@@H](CCCN=C(N)N)C(=O)O [LRLRLRLRLRLRLRLRLR]
MIC [4]: 145 µM (≈ 354 µg/mL)
MIC [5]: ≥ 36 µM
MIC [6]: ≥ 51.2 µM
MIC [7]: ≥ 102 µM
MIC [8]: ≥ 72.4 µM

Structure (SMILES): CC(C)C[C@H](NC(=O)[C@H](C)NC(=O)CNC(=O)[C@H](CC(C)C)NC(=O)[C@@H](N)Cc1ccccc1)C(=O)N[C@@H](Cc1ccccc1)C(=O)N[C@@H](CCCCN)C(=O)N[C@H](C(=O)N[C@@H](C)C(=O)O)C(C)C [FLGALFKVA]
MIC [9]: ≥ 207 µM
MIC [10]: > 207 µM
MIC [11]: > 207 µM
MIC [12]: ≥ 207 µM
MIC [13]: ≥ 207 µM
MIC [14]: > 207 µM
MIC [15]: ≥ 207 µM
MIC [16]: ≥ 207 µM
MIC [17]: > 207 µM
MIC [18]: ≥ 207 µM

Continued, values first:

MIC [3]: 1.99 µM (≈ 4.8 µg/mL)
Structure (SMILES): CC[C@H](C)[C@H](NC(=O)[C@H](CCCN=C(N)N)NC(=O)[C@H](CCCN=C(N)N)NC(=O)[C@@H]1CCCN1C(=O)[C@@H]1CCCN1C(=O)[C@H](CCCN=C(N)N)NC(=O)[C@@H]1CCCN1C(=O)[C@H](CCCN=C(N)N)NC(=O)[C@@H]1CCCN1C(=O)[C@H](CC(C)C)NC(=O)[C@H](Cc1ccc(O)cc1)NC(=O)[C@H](CC(N)=O)NC(=O)[C@@H]1CCCN1C(=O)[C@H](CCCCN)NC(=O)[C@H](CC(=O)O)NC(=O)[C@@H](N)C(C)C)C(=O)N[C@@H](Cc1ccc(O)cc1)C(=O)N[C@@H](CC(N)=O)C(=O)N[C@@H](CCCN=C(N)N)C(N)=O [VDKPNYLPRPRPPRRIYNR]

MIC [3]: 1.28 µM (≈ 3.1 µg/mL)
Structure (SMILES): CC[C@H](C)[C@H](NC(=O)[C@H](CCCN=C(N)N)NC(=O)[C@H](CCCN=C(N)N)NC(=O)[C@@H]1CCCN1C(=O)[C@@H]1CCCN1C(=O)[C@H](CCCN=C(N)N)NC(=O)[C@@H]1CCCN1C(=O)[C@H](CCCN=C(N)N)NC(=O)[C@@H]1CCCN1C(=O)[C@H](CC(C)C)NC(=O)[C@H](Cc1ccc(O)cc1)NC(=O)[C@@H]1CCCN1C(=O)[C@H](CCC(N)=O)NC(=O)[C@H](CCCCN)NC(=O)[C@H](CC(=O)O)NC(=O)[C@@H](N)C(C)C)C(=O)N[C@@H](Cc1ccc(O)cc1)C(=O)N[C@@H](CC(N)=O)C(=O)N[C@@H](CCCN=C(N)N)C(N)=O [VDKQPYLPRPRPPRRIYNR]

MIC [3]: 0.519 µM (≈ 1.3 µg/mL)
Structure (SMILES): CC[C@H](C)[C@H](NC(=O)[C@H](CCCN=C(N)N)NC(=O)[C@H](CCCN=C(N)N)NC(=O)[C@@H]1CCCN1C(=O)[C@@H]1CCCN1C(=O)[C@H](CCCN=C(N)N)NC(=O)[C@@H]1CCCN1C(=O)[C@H](CCCN=C(N)N)NC(=O)[C@@H]1CCCN1C(=O)[C@H](CCCCN)NC(=O)[C@H](Cc1ccc(O)cc1)NC(=O)[C@H](Cc1cnc[nH]1)NC(=O)[C@H](CCCN=C(N)N)NC(=O)[C@H](CCCCN)NC(=O)[C@H](CC(=O)O)NC(=O)[C@@H](N)C(C)C)C(=O)N[C@@H](Cc1ccc(O)cc1)C(=O)N[C@@H](CC(N)=O)C(=O)N[C@@H](CCCN=C(N)N)C(N)=O [VDKRHYKPRPRPPRRIYNR]

MIC [3]: 1.98 µM (≈ 4.8 µg/mL)
Structure (SMILES): CC[C@H](C)[C@H](NC(=O)[C@H](CCCN=C(N)N)NC(=O)[C@H](CCCN=C(N)N)NC(=O)[C@@H]1CCCN1C(=O)[C@@H]1CCCN1C(=O)[C@H](CCCN=C(N)N)NC(=O)[C@@H]1CCCN1C(=O)[C@H](CCCN=C(N)N)NC(=O)[C@@H]1CCCN1C(=O)[C@H](CC(C)C)NC(=O)[C@H](Cc1ccc(O)cc1)NC(=O)[C@@H]1CCCN1C(=O)[C@@H]1CCCN1C(=O)[C@H](CCCCN)NC(=O)[C@H](CC(=O)O)NC(=O)[C@@H](N)CCCCN)C(=O)N[C@@H](Cc1ccc(O)cc1)C(=O)N[C@@H](CC(N)=O)C(=O)N[C@@H](CCCN=C(N)N)C(N)=O [KDKPPYLPRPRPPRRIYNR]

MIC [3]: 0.683 µM (≈ 1.7 µg/mL)
Structure (SMILES): CC[C@H](C)[C@H](NC(=O)[C@H](CCCN=C(N)N)NC(=O)[C@H](CCCN=C(N)N)NC(=O)[C@@H]1CCCN1C(=O)[C@@H]1CCCN1C(=O)[C@H](CCCN=C(N)N)NC(=O)[C@@H]1CCCN1C(=O)[C@H](CCCN=C(N)N)NC(=O)[C@@H]1CCCN1C(=O)[C@H](CC(C)C)NC(=O)[C@H](Cc1ccc(O)cc1)NC(=O)[C@H](Cc1cnc[nH]1)NC(=O)[C@H](CCCN=C(N)N)NC(=O)[C@H](CCCCN)NC(=O)[C@H](CC(=O)O)NC(=O)[C@@H](N)C(C)C)C(=O)N[C@@H](Cc1ccc(O)cc1)C(=O)N[C@@H](CC(N)=O)C(=O)N[C@@H](CCCN=C(N)N)C(N)=O [VDKRHYLPRPRPPRRIYNR]
